Laboratory results taken from US9096591B2, “Tetracyclic compounds” (Medivation Technologies, Inc., priority 2007, dated 2015).
Values joined by “and” are separate entries in the source; they are usually repeats but may differ in a detail not shown here. Equal values may be shown once.

How the values were obtained:
[1] = molecular target: human recombinant dopamine D2S receptor (Homo sapiens, UniProt P14416); assay: Dopamine D2S antagonist activity ([35S]GTPγS binding, SPA); format: biochemical
Method: To determine for agonist or antagonist activity of compounds of the invention in functional assays, human recombinant dopamine D2S receptor stably expressed in Chinese hamster ovary (CHO) cells (Gilliland S L and Alper R H. Naunyn-Schmiedeberg's Archives of Pharmacology. 361: 498, 2000) was used. Compounds of invention were pre-incubated with the membranes (0.05 mg/ml) and 3 μM GDP in modified HEPES buffer (20 mM HEPES, pH 7.4, 100 mM NaCl, 10 mM MgCl2, 1 mM DTT, 1 mM EDTA) for 20 minutes and Scintillation Proximity Assay (SPA) beads were then added for another 60 minutes at 30° C. The reaction was initiated by 0.3 nM [^35S]GTPγS for an additional 30 minute incubation period. […] Compounds were screened at 3 μM or lower, using 0.4% DMSO as vehicle. Assay results are presented as the percent response of specific binding in Table 9.

[2] = molecular target: T1, human recombinant dopamine D2L receptor (Homo sapiens, UniProt P14416); assay: Dopamine D2L antagonist activity ([35S]GTPγS binding, SPA); format: biochemical
T1 construct: expressed in transfected cells; host or cells: CHO cells
T1 sequence (P14416 whole entry): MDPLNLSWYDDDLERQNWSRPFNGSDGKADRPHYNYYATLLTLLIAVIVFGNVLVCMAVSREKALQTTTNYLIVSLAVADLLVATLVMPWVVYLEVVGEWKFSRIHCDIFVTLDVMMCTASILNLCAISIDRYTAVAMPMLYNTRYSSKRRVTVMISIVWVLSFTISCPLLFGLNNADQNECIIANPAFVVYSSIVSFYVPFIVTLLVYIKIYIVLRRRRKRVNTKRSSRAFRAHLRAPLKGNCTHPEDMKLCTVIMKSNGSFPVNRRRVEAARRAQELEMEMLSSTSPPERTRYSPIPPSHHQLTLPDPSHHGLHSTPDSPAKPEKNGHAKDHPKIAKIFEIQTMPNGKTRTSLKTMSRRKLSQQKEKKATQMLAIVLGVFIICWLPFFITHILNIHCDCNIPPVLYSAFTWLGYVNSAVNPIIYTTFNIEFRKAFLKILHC
Method: To determine for agonist or antagonist activity of compounds of the invention in functional assays, human recombinant dopamine D2L receptor stably expressed in Chinese hamster ovary (CHO) cells (Senogles S E et al. J Biol Chem. 265(8): 4507, 1990) was used. Compounds of invention were pre-incubated with the membranes (0.1 mg/ml) and […] in modified HEPES buffer (20 mM HEPES, pH 7.4, 100 mM NaCl, 10 mM MgCl2, 1 mM DTT, 1 mM EDTA) for 20 minutes and Scintillation Proximity Assay (SPA) beads were added for another 60 minutes at 30° C. The reaction was initiated by 0.3 nM [^35S]GTPγS for an additional 15 minute incubation period. […] Compounds were screened at 3 μM or lower, using 0.4% DMSO as vehicle. Assay results are presented as the percent response of specific binding in Table 8.

[3] = molecular target: T2, human recombinant serotonin 5-HT2A receptor (Homo sapiens, UniProt P28223); assay: Serotonin 5-HT2A agonist/antagonist functional assay (calcium fluorescence, HEK-293); format: cell-based; conditions: antagonist mode
T2 construct: expressed in transfected cells; host or cells: HEK-293 cells
T2 sequence (P28223 whole entry): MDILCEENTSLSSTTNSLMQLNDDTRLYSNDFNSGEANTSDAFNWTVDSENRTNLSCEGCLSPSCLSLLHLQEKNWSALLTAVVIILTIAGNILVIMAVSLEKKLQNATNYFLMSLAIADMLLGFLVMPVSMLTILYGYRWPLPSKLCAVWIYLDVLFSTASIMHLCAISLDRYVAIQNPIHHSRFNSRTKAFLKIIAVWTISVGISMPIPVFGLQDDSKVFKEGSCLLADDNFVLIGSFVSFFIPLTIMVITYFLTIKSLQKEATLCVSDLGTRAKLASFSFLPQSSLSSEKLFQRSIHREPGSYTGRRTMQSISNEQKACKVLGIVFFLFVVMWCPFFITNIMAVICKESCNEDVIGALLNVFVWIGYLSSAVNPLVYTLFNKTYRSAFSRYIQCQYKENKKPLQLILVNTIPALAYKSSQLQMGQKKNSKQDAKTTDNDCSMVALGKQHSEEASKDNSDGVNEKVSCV
Description: To determine for agonist or antagonist activity of compounds of the invention in functional assays, human recombinant serotonin 5-HT2A receptor expressed in human embryonic kidney (HEK-293) cells (Jerman J C, Brough S J, Gager T, Wood M, Coldwell M C, Smart D and Middlemiss D N. Eur J Pharmacol, 414: 23-30, 2001) was used. Cells were suspended in DMEM buffer, and distributed in microplates. A cytoplasmic calcium fluorescent indicator which varies proportionally to the free cytosolic Ca^2+ ion concentration was mixed with probenicid in HBSS buffer complemented with 20 mM Hepes (pH 7.4), added into each well and equilibrated with the cells for 30 min at 37° C. followed by 30 min at 22° C. […]
The standard reference antagonist was ketanserin, which was tested in each experiment at several concentrations to generate a concentration-response curve from which its IC50 value was calculated.

[4] = two values = assay run twice, read-out: Antagonist Activity As Measured by % Inhibition D2S
[5] = 0.3 uM, two values = assay run twice, read-out: Antagonist Activity As Measured by % Inhibition D2L
[6] = 0.03 uM, two values = assay run twice

Sequence of human recombinant dopamine D2S receptor (P14416 1-414 isoform P14416-2): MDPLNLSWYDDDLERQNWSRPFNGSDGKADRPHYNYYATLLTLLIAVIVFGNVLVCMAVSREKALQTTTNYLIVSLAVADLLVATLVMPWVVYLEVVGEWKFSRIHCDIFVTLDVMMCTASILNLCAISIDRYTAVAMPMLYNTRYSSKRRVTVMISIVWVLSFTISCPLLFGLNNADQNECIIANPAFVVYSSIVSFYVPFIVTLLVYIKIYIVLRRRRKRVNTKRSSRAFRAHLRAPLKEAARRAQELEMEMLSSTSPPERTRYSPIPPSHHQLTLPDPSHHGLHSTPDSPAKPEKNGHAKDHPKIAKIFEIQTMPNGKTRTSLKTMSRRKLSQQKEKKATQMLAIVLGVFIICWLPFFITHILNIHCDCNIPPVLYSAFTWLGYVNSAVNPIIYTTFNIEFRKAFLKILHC

With Cc1ccc2c(c1)c1c(n2CCc2ccc(C(F)(F)F)nc2)CCN(C)C1 [Compound 68] the inhibition at 0.3 µM [1, 4] was 42%, the inhibition at 1 µM ([1]; 1 uM, read-out: Antagonist Activity As Measured by % Inhibition D2S) was 70% and the inhibition at 3 µM ([1]; 3 uM, read-out: Antagonist Activity As Measured by % Inhibition D2S) was 93%. For the same compound, the inhibition at 0.3 µM [2, 5] was 8%, the inhibition at 1 µM ([2]; 1 uM, read-out: Antagonist Activity As Measured by % Inhibition D2L) was 27% and the inhibition at 3 µM ([2]; 3 uM, read-out: Antagonist Activity As Measured by % Inhibition D2L) was 54%.
For CN1CCc2c(c3cc(F)ccc3n2CCc2ccc(F)cc2)C1 [Compound 253], the “% of Control Agonist Response, 1st Assay” value ([3]; test concentration 1.00E−06 M) was 0%, the “% of Control Agonist Response, 2nd Assay” value ([3]; test concentration 1.00E−06 M) was 3% and the “% of Control Agonist Response, Mean” value ([3]; test concentration 1.00E−06 M) was 1.5%. For the same compound, the “% of Control Agonist Response, 1st Assay” value ([3]; test concentration 1.00E−07 M) was 94%, the “% of Control Agonist Response, 2nd Assay” value ([3]; test concentration 1.00E−07 M) was 95% and the “% of Control Agonist Response, Mean” value ([3]; test concentration 1.00E−07 M) was 94.3%. For the same compound, the “% of Control Agonist Response, 1st Assay” value ([3]; test concentration 3.00E−06 M) was −3%, the “% of Control Agonist Response, 2nd Assay” value ([3]; test concentration 3.00E−06 M) was −3% and the “% of Control Agonist Response, Mean” value ([3]; test concentration 3.00E−06 M) was −2.6%. For the same compound, the “% of Control Agonist Response, 1st Assay” value ([3]; test concentration 3.00E−07 M) was 36%, the “% of Control Agonist Response, 2nd Assay” value ([3]; test concentration 3.00E−07 M) was 80% and the “% of Control Agonist Response, Mean” value ([3]; test concentration 3.00E−07 M) was 57.9%. For the same compound, the “% of Control Agonist Response, 1st Assay” value ([3]; test concentration 3.00E−08 M) was 114%, the “% of Control Agonist Response, 2nd Assay” value ([3]; test concentration 3.00E−08 M) was 119% and the “% of Control Agonist Response, Mean” value ([3]; test concentration 3.00E−08 M) was 116.5%. For the same compound, the “Antagonist Activity As Measured by % Inhibition D2S” value [1, 6] was 104% and 80%, the inhibition at 0.1 µM ([1]; 0.1 uM, two values = assay run twice, read-out: Antagonist Activity As Measured by % Inhibition D2S) was 94% and the inhibition at 0.3 µM [1, 4] was 96%. For the same compound, the “Antagonist Activity As Measured by % Inhibition D2L” value [2, 6] was 56%, the inhibition at 0.03 µM ([2]; 0.03 uM, two values = assay run twice, read-out: Antagonist Activity As Measured by % Inhibition D2L) was 36% and the “Antagonist Activity As Measured by % Inhibition D2L” value ([2]; 0.1 uM, two values = assay run twice) was 77%. The inhibition at 0.1 µM ([2]; 0.1 uM, two values = assay run twice, read-out: Antagonist Activity As Measured by % Inhibition D2L) was 57%, the “Antagonist Activity As Measured by % Inhibition D2L” value ([2]; 0.3 uM, two values = assay run twice) was 89% and the inhibition at 0.3 µM [2, 5] was 81%.
